Legend:
Format in all cases: biochemical
[1] = molecular target: T1, Flt3 (Homo sapiens, UniProt P36888); assay: Enzymatic Flt3 in vitro inhibition; details: % inhibition at 10 μM
T1 sequence (P36888 27-993): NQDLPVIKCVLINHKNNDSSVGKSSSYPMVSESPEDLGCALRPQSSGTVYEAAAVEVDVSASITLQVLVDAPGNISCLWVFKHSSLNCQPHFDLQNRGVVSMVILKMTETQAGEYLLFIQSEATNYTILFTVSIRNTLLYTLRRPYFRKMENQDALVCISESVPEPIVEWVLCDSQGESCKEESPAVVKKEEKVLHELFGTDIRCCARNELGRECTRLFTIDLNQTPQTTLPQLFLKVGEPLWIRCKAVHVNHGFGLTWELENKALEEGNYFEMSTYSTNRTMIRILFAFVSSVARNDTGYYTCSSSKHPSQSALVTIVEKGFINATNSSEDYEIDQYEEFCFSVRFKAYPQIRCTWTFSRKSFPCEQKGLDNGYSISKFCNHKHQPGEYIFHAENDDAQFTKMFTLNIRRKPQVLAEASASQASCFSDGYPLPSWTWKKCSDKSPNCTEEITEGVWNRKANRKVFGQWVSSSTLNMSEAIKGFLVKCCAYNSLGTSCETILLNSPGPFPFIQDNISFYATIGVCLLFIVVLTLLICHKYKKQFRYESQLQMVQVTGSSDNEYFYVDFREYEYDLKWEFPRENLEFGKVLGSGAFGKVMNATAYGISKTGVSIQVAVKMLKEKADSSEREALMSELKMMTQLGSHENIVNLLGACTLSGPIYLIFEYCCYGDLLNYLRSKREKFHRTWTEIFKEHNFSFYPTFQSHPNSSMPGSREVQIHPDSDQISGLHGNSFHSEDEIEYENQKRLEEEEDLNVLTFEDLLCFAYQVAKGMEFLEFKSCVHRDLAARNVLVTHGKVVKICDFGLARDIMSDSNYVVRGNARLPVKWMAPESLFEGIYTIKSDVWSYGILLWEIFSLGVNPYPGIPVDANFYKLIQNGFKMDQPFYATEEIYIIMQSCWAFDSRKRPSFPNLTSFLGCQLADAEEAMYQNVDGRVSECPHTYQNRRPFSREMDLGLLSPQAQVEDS
Method: Enzymatic (c-Abl, KDR, Flt3) in vitro inhibition data are presented as % inhibition at 10 μM. The measurements are made as described above in the general description.

[2] = molecular target: KDR (Homo sapiens, UniProt P35968); assay: Enzymatic KDR in vitro inhibition
KDR, sequence (P35968 20-1356): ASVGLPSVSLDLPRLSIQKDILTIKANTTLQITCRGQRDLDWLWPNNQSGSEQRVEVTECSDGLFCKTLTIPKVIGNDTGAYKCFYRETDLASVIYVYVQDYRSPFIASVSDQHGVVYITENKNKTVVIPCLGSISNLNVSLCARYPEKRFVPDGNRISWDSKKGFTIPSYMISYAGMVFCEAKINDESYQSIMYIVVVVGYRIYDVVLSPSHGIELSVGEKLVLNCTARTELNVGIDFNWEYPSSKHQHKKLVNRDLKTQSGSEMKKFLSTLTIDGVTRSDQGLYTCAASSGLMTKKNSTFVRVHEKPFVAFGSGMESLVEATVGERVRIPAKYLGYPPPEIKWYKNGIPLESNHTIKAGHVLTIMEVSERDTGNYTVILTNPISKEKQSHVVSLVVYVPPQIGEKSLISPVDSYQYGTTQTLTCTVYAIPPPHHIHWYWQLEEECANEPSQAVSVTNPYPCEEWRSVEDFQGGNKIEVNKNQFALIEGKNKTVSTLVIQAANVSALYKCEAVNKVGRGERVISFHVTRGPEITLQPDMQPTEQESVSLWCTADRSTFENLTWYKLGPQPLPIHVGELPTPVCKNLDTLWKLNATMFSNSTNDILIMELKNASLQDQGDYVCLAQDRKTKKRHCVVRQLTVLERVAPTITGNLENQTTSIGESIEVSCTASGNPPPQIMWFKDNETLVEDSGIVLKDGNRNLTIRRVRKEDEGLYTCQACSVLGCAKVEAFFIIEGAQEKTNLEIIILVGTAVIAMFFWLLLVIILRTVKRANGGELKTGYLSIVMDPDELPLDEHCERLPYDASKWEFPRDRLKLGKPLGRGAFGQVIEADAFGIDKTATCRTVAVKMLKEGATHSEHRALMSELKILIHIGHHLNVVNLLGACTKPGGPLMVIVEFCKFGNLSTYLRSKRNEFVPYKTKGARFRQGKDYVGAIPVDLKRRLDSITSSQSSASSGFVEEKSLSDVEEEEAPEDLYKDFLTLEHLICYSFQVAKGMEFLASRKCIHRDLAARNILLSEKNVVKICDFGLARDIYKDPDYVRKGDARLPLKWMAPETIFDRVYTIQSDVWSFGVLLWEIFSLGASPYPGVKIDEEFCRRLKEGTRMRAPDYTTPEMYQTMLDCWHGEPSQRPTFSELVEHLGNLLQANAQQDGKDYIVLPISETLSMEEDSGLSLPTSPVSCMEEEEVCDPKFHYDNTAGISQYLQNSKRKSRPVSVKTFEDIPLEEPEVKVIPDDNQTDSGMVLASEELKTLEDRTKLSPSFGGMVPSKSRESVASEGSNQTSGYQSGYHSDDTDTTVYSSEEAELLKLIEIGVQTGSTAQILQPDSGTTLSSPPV
Summary of the method: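 KDR kinase inhibition was measured in vitro with a radiometric filter-binding method. The kinase was incubated for 10 minutes at room temperature with poly(Glu,Tyr) 4:1 and 8 μM [^33P]-ATP (0.2 μCi) in 20 mM Tris.HCl pH 7.5 buffer with MnCl2, MgCl2, vanadate, PEG 20000, dithiothreitol and 1% DMSO. EDTA stopped the reaction, aliquots were spotted onto PVDF membranes, and after acid and ethanol washes radioactivity was counted. Results are given as % inhibition at 10 μM.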

[3] = molecular target: T2, c-Abl (Homo sapiens, UniProt P00519); assay: Test for activity against c-Abl protein tyrosine kinase (filter binding assay)
T2 construct: The His-tagged kinase domain of c-Abl is cloned and expressed in the baculovirus/Sf9 system; His; made in house; host or cells: baculovirus/Sf9
T2 sequence (P00519 242-493 limits assumed): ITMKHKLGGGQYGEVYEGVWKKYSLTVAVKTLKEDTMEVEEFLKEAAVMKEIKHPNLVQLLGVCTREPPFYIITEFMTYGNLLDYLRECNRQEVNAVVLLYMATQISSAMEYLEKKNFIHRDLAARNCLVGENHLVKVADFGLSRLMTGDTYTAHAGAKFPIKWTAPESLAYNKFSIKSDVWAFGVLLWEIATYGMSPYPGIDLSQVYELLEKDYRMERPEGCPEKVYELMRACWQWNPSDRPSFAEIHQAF
Summary of the method: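 His-tagged c-Abl kinase domain expressed in baculovirus/Sf9 cells; 50 ng enzyme with 30 μg/mL poly-AEKY, 5 μM ATP plus [γ-33P]-ATP, pH 7.5 Tris, 1% DMSO. Stopped with EDTA, captured on PVDF membrane and counted by scintillation. Values are % inhibition at 10 μM.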

Flt3 %@10 μM [1]: 41%
inhibition at 10 µM [2]: 88%
inhibition at 10 µM [3]: 98%
SMILES: CCN(CC)c1cccc(NC(=O)c2ccc(C)c(Nc3nccc(-c4cccnc4)n3)c2)c1 [Example 67, N-[3-(Diethylamino)phenyl]-4-methyl-3-[[4-(3-pyridinyl)-2-Pyrimidinyl]amino]benzamide]
